Results: PubChem BioAssay (NCI)
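Compound exposure: 48 hours, 5 concentrations, 96-well plates. TGI denotes the concentration required for complete inhibition of growth.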

Legend:
Experiment in all cases: growth of human tumour cells (NCI), 48 h
786-0 renal = system: 786-0 renal
A549 NSCLC = system: A549 NSCLC
ACHN renal = system: ACHN renal
CAKI-1 renal = system: CAKI-1 renal
COLO 205 colon = system: COLO 205 colon
DU-145 prostate = system: DU-145 prostate
HCT-116 colon = system: HCT-116 colon
HCT-15 colon = system: HCT-15 colon
HL-60(TB) leukemia = system: HL-60(TB) leukemia
HOP-62 NSCLC = system: HOP-62 NSCLC
HOP-92 NSCLC = system: HOP-92 NSCLC
HS 578T breast = system: HS 578T breast
HT29 colon = system: HT29 colon
IGROV1 ovarian = system: IGROV1 ovarian
K-562 leukemia = system: K-562 leukemia
KM12 colon = system: KM12 colon
M14 melanoma = system: M14 melanoma
MALME-3M melanoma = system: MALME-3M melanoma
MCF7 breast = system: MCF7 breast
MDA-MB-231 breast = system: MDA-MB-231 breast
MDA-MB-435 = system: MDA-MB-435
MOLT-4 leukemia = system: MOLT-4 leukemia
NCI-H226 lung = system: NCI-H226 lung
NCI-H23 lung = system: NCI-H23 lung
NCI-H460 lung = system: NCI-H460 lung
NCI-H522 lung = system: NCI-H522 lung
NCI/ADR-RES ovarian = system: NCI/ADR-RES ovarian
OVCAR-3 ovarian = system: OVCAR-3 ovarian
OVCAR-4 ovarian = system: OVCAR-4 ovarian
OVCAR-5 ovarian = system: OVCAR-5 ovarian
OVCAR-8 ovarian = system: OVCAR-8 ovarian
PC-3 prostate = system: PC-3 prostate
RXF 393 renal = system: RXF 393 renal
SF-268 CNS = system: SF-268 CNS
SF-295 CNS = system: SF-295 CNS
SF-539 CNS = system: SF-539 CNS
SK-MEL-2 melanoma = system: SK-MEL-2 melanoma
SK-MEL-28 melanoma = system: SK-MEL-28 melanoma
SK-MEL-5 melanoma = system: SK-MEL-5 melanoma
SK-OV-3 ovarian = system: SK-OV-3 ovarian
SN12C renal = system: SN12C renal
SNB-19 CNS = system: SNB-19 CNS
SNB-75 CNS = system: SNB-75 CNS
SR leukemia = system: SR leukemia
SW-620 colon = system: SW-620 colon
T-47D breast = system: T-47D breast
TK-10 renal = system: TK-10 renal
U251 CNS = system: U251 CNS
UACC-257 melanoma = system: UACC-257 melanoma
UACC-62 melanoma = system: UACC-62 melanoma
UO-31 renal = system: UO-31 renal
A498 renal = system: A498 renal
CCRF-CEM leukemia = system: CCRF-CEM leukemia
EKVX NSCLC = system: EKVX NSCLC
HCC-2998 colon = system: HCC-2998 colon
LOX IMVI melanoma = system: LOX IMVI melanoma
RPMI-8226 leukemia = system: RPMI-8226 leukemia

## Clc1ccccc1CN1COc2c(cc(Cl)c3cccnc23)C1
786-0 renal
  TGI: 18.9 µM
A549 NSCLC
  TGI: 13.6 µM
ACHN renal
  TGI: 13.4 µM
CAKI-1 renal
  TGI: 24 µM
COLO 205 colon
  TGI: 43.2 µM
DU-145 prostate
  TGI: 21 µM
HCT-116 colon
  TGI: 15.4 µM
HCT-15 colon
  TGI: 10.9 µM
HL-60(TB) leukemia
  TGI: 8.9 µM
HOP-62 NSCLC
  TGI: 18.7 µM
HOP-92 NSCLC
  TGI: 23 µM
HS 578T breast
  TGI: 23.4 µM
HT29 colon
  TGI: 36.6 µM
IGROV1 ovarian
  TGI: 23.7 µM
K-562 leukemia
  TGI: 11.9 µM
KM12 colon
  TGI: 14.6 µM
M14 melanoma
  TGI: 21.7 µM
MALME-3M melanoma
  TGI: 11.1 µM
MCF7 breast
  TGI: 86.5 µM
MDA-MB-231 breast
  TGI: 9.33 µM
MDA-MB-435
  TGI: 20.9 µM
MOLT-4 leukemia
  TGI: 1.12 µM
NCI-H226 lung
  TGI: 4.09 µM
NCI-H23 lung
  TGI: 13.2 µM
NCI-H460 lung
  TGI: 27.4 µM
NCI-H522 lung
  TGI: 15.7 µM
NCI/ADR-RES ovarian
  TGI: 1.74 µM
OVCAR-3 ovarian
  TGI: 26.4 µM
OVCAR-4 ovarian
  TGI: 14.2 µM
OVCAR-5 ovarian
  TGI: 15.1 µM
OVCAR-8 ovarian
  TGI: 13.9 µM
PC-3 prostate
  TGI: 18.7 µM
RXF 393 renal
  TGI: 39.6 µM
SF-268 CNS
  TGI: 46.5 µM
SF-295 CNS
  TGI: 16.6 µM
SF-539 CNS
  TGI: 10.9 µM
SK-MEL-2 melanoma
  TGI: 26.1 µM
SK-MEL-28 melanoma
  TGI: 25.9 µM
SK-MEL-5 melanoma
  TGI: 5.78 µM
SK-OV-3 ovarian
  TGI: 21.2 µM
SN12C renal
  TGI: 0.494 µM
SNB-19 CNS
  TGI: 17.2 µM
SNB-75 CNS
  TGI: 18.8 µM
SR leukemia
  TGI: 4 µM
SW-620 colon
  TGI: 21 µM
T-47D breast
  TGI: > 100 µM
TK-10 renal
  TGI: 26.5 µM
U251 CNS
  TGI: 14.1 µM
UACC-257 melanoma
  TGI: 12.3 µM
UACC-62 melanoma
  TGI: 3.8 µM
UO-31 renal
  TGI: 21.7 µM

## COc1ccc(OC)c2c1C=C[C@H](C1(C)SCCS1)C2C(C)=O (stereo not given in full)
786-0 renal
  TGI: > 100 µM
A498 renal
  TGI: 78.2 µM
A549 NSCLC
  TGI: > 100 µM
ACHN renal
  TGI: > 100 µM
CAKI-1 renal
  TGI: 90 µM
CCRF-CEM leukemia
  TGI: > 100 µM
DU-145 prostate
  TGI: 97.9 µM
EKVX NSCLC
  TGI: > 100 µM
HCC-2998 colon
  TGI: > 100 µM
HCT-116 colon
  TGI: 65.3 µM
HCT-15 colon
  TGI: > 100 µM
HL-60(TB) leukemia
  TGI: 41.3 µM
HOP-62 NSCLC
  TGI: > 100 µM
HOP-92 NSCLC
  TGI: > 100 µM
HS 578T breast
  TGI: 45.6 µM
HT29 colon
  TGI: 33.8 µM
IGROV1 ovarian
  TGI: > 100 µM
K-562 leukemia
  TGI: > 100 µM
KM12 colon
  TGI: 99.5 µM
LOX IMVI melanoma
  TGI: 81.8 µM
M14 melanoma
  TGI: > 100 µM
MALME-3M melanoma
  TGI: 89.8 µM
MCF7 breast
  TGI: > 100 µM
MDA-MB-231 breast
  TGI: > 100 µM
MDA-MB-435
  TGI: > 100 µM
MOLT-4 leukemia
  TGI: 60.6 µM
NCI-H226 lung
  TGI: 63.4 µM
NCI-H23 lung
  TGI: 71.6 µM
NCI-H460 lung
  TGI: 76.5 µM
NCI-H522 lung
  TGI: 41.5 µM
NCI/ADR-RES ovarian
  TGI: > 100 µM
OVCAR-3 ovarian
  TGI: 61.5 µM
OVCAR-4 ovarian
  TGI: > 100 µM
OVCAR-5 ovarian
  TGI: 65.6 µM
OVCAR-8 ovarian
  TGI: > 100 µM
PC-3 prostate
  TGI: > 100 µM
RPMI-8226 leukemia
  TGI: 58.6 µM
RXF 393 renal
  TGI: 92.3 µM
SF-268 CNS
  TGI: > 100 µM
SF-295 CNS
  TGI: 65.5 µM
SF-539 CNS
  TGI: 48.2 µM
SK-MEL-28 melanoma
  TGI: > 100 µM
SK-MEL-5 melanoma
  TGI: 47.1 µM
SK-OV-3 ovarian
  TGI: 70.9 µM
SN12C renal
  TGI: > 100 µM
SNB-19 CNS
  TGI: 81.1 µM
SR leukemia
  TGI: 59.2 µM
SW-620 colon
  TGI: > 100 µM
T-47D breast
  TGI: > 100 µM
TK-10 renal
  TGI: > 100 µM
U251 CNS
  TGI: 73.2 µM
UACC-257 melanoma
  TGI: > 100 µM
UACC-62 melanoma
  TGI: > 100 µM
UO-31 renal
  TGI: 59.7 µM
